# Assay results from article PMC7721954, “Preclinical comparison of four [^18F, ^natGa]rhPSMA-7 isomers: influence of the stereoconfiguration on pharmacokinetics” (EJNMMI Research, 2020).
# Read-outs that look alike come from different tables or passages of the source.
# Experiments:
# LNCaP cells [1] = conditions: 1 h, 37 °C, percentage of reference ligand ([125I]I-BA)KuE, n = 3; cited from earlier work
# [2] = n-octanol/PBS pH 7.4, cited from earlier work
# human serum albumin [3] = target: T1, human serum albumin (Homo sapiens, UniProt P02768); conditions: Chiralpak HSA column, cited from earlier work
# T1 construct: purchased
# PSMA [4] = target: T2, PSMA (Homo sapiens, UniProt Q04609); conditions: LNCaP cells, 1 h, 4 °C, n = 3; read-out: IC50 (binding affinity); cited from earlier work
# T2 construct: host or cells: LNCaP cells
# PSMA [5] = target: T2, PSMA; test: Competitive binding (IC50) on LNCaP cells vs ([125I]I-BA)KuE; conditions: ratio of IC50 values
# Experimental: (§1) Competitive binding studies were determined on LNCaP cells (1.5 × 10^5 cells in 1 mL/well) after incubation at 4 °C for 1 h, using (((S)-1-carboxy-5-(4-([^125I]iodo)benzamido)pentyl)carbamoyl)-L-glutamic acid (([^125I]I-BA)KuE; 0.2 nM/well) as reference radioligand (n = 5–9). Internalization studies of the radiolabeled ligands (0.5 nM/well) were performed on LNCaP cells (1.25 × 10^5 cells in 1 mL/well) at 37 °C for 1 h and accompanied by ([^125I]I-BA)KuE (0.2 nM/well), as reference. Data were corrected for non-specific binding and normalized to the specific internalization observed for the reference (n = 3–6). A detailed description of the experimental procedures was previously published.
# LNCaP cells [6] = test: Internalization into LNCaP cells relative to ([125I]I-BA)KuE; format: cell-based; conditions: 1 h, 37 °C, percentage of reference ligand ([125I]I-BA)KuE, n = 3-6
# Experimental: as §1
# human serum albumin [7] = target: T1, human serum albumin; test: Human serum albumin binding on Chiralpak HSA column; format: in vitro ADME
# Experimental: Approximately 1 MBq of the ^18F-ligand was dissolved in 1 mL of a 1:1 mixture (v/v) of phosphate-buffered saline (PBS, pH 7.4) and n-octanol (n = 18–23). After vigorous mixing of the suspension for 3 min, the vial was centrifuged at 15,000 × g for 3 min and 100 μL aliquots of both layers were measured in a γ-counter. HSA binding of ^19F-^natGa-rhPSMA ligands was determined according to a previously published procedure.
# [8] = tested on: LNCaP tumor-bearing male CB-17 SCID mice; test: Biodistribution 1 h p.i.; format: in vivo
# Experimental: (§2) LNCaP tumor xenografts were established in 6–8 weeks old male CB-17 SCID mice as described previously.
# (§3) 1–3 MBq (0.2 nmol) of the [^18F, ^natGa]rhPSMA inhibitors were injected into the tail vein of LNCaP tumor-bearing male CB-17 SCID mice that were sacrificed 1 h post injection (p.i.) (n = 4 for 7.1, n = 5 for 7.2, n = 4 for 7.3, n = 5 for 7.4 and n = 3 for 7). Selected organs were removed, weighed, and measured in a γ-counter. For competition studies, 8 mg/kg of 2-PMPA (2-(Phosphonomethyl)-pentandioic acid) were co-administered (n = 3).
# [9] = tested on: LNCaP tumor-bearing male CB-17 SCID mice; test: Biodistribution 1 h p.i. with competition (co-injection of 2-PMPA); format: in vivo; conditions: co-injected with 2-PMPA (8 mg/kg), n = 3
# Experimental: as §2, §3
# LNCaP tumor-bearing mice = test: Differential uptake and excretion pattern of isomers after injection of the diastereomeric mixture (radio-HPLC); format: in vivo; conditions: blood, liver, kidney and tumor, 30 min p.i., n = 4
# Experimental: With the intention to identify even marginal differences in the in vivo behavior, all four [^18F, ^natGa]rhPSMA-7 isomers were co-evaluated in one single tumor-bearing mouse in order to quantify the differential uptake and excretion pattern of each isomer. For this purpose, the diastereomeric mixture [^18F, ^natGa]rhPSMA-7 was produced in high molar activity (AM) of 247–349 GBq/µmol (at end of synthesis) and the abundance of each isomer was determined by radio-HPLC. Mice (n = 4) were injected with [^18F, ^natGa]rhPSMA-7 (180–280 MBq, 0.9–1.0 nmol) and left under anesthesia. After 30 min p.i., they were sacrificed and urine, blood, liver, kidneys and tumor were collected and processed. Radioactivity was extracted from solid tissues by means of a Potter–Elvehjem tissue grinder (n = 1) or a ball mill (n = 3) and separated from the protein fraction by subsequent cartridge-based solid-phase extraction (SPE). Blood samples were diluted, centrifuged and the supernatant was purified by SPE (see supporting information). Urine and extracts from tissue samples were then analyzed by radio-HPLC to quantify the fraction of each isomer in each sample. Finally, the relative percentage difference between the abundance of each isomer in the injected diastereomeric mixture (values taken from the quality control) and the abundance of the respective isomer in each analyzed tissue or body fluid was calculated. […] PeakFit allows for automated nonlinear separation, analysis and quantification of HPLC elution profiles by deconvolution procedures that uses a Gaussian response function with a Fourier deconvolution/filtering algorithm (see Additional file 1: Fig. 7).
# Extraction via the Potter-Elvehjem Tissue Grinder. Tumor and kidneys were separately homogenized in the tissue homogeniser with 1 mL of extraction buffer (850 μL 1 M HEPES pH 7.4, 100 μL 20 mM PMPA and 100 μL 1 M NaCl) for 30 min. The resulting homogenate was collected and centrifuged at 13000×g for 5 min. Subsequently, the supernatant was collected, centrifuged again (13000×g, 5 min) and loaded on a Strata X cartridge (33 μm Polymeric Reversed Phase 500 mg) preconditioned with 5 mL MeOH, followed by 5 mL H2O. After washing with 5 mL H2O, the cartridge was eluted with a 3:2 mixture (v/v) of MeCN in H2O supplemented with 1% TFA. For radio-HPLC analysis the eluates were diluted with water.
# Extraction via the MM-400 Ball Mill. The samples (tumor, kidney, liver) were separately homogenized in a 2 mL tube together with 3 grinding balls (3 mm diameter) and 1 mL of extraction buffer (850 μL 1 M HEPES pH 7.4, 100 μL 20 mM PMPA and 100 μL 1 M NaCl) for 10 min at 30 Hz. The homogenate was centrifuged at 13 000×g for 5 min and the supernatant was collected. […]
# T1 sequence (P02768 25-609): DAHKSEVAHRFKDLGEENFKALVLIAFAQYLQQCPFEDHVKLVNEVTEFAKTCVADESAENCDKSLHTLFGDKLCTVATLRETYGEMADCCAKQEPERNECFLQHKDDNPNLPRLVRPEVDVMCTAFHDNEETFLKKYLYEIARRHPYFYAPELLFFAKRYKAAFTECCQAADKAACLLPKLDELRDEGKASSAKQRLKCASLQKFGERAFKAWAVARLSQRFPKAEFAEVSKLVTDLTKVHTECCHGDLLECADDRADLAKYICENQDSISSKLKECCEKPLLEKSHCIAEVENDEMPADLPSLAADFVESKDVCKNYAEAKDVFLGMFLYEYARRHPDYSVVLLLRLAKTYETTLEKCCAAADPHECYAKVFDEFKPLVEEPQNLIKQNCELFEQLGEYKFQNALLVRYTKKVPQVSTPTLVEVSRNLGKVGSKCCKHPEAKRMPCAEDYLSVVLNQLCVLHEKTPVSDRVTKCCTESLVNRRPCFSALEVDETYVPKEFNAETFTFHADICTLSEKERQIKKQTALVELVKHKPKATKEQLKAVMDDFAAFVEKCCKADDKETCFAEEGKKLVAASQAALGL
# T2 sequence (Q04609 whole entry): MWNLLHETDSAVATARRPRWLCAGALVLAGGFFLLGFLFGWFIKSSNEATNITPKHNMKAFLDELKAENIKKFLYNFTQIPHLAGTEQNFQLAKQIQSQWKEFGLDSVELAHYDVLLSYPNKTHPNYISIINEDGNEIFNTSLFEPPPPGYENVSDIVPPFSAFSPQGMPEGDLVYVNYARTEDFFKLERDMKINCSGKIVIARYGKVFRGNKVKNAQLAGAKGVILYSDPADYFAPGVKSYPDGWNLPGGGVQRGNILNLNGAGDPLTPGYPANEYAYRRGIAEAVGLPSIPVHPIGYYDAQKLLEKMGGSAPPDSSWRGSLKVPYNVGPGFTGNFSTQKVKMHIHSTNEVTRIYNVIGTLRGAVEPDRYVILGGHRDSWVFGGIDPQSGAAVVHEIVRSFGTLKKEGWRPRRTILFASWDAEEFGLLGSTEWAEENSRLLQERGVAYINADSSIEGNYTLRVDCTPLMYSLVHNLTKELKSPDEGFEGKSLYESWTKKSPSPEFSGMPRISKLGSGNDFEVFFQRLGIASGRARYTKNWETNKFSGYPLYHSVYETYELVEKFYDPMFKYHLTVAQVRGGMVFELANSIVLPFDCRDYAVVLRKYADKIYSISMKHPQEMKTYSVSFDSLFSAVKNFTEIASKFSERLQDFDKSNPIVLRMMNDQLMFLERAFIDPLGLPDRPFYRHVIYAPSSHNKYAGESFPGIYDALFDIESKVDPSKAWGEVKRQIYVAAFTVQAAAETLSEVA
SMILES,Internalization (internalized activity) (LNCaP cells [1]),HSA-binding (human serum albumin [3]),Internalization (internalized activity) (LNCaP cells [6]),HSA-binding (human serum albumin [7]),Biodistribution Adrenals [8],Biodistribution Blood [8],Biodistribution Bone [8],Biodistribution Heart [8],Biodistribution Intestine [8],Biodistribution Kidneys [8],Biodistribution Liver [8],Biodistribution Lung [8],Biodistribution Muscle [8],Biodistribution Pancreas [8],Biodistribution Spleen [8],Biodistribution Stomach [8],Biodistribution Tumor [8],Biodistribution Adrenals [9],Biodistribution Blood [9],Biodistribution Bone [9],also measured
O=C(O)CC[C@H](NC(=O)N[C@@H](CCCCNC(=O)c1ccc(F)nc1)C(=O)O)C(=O)O [[^18/19F]DCFPyL],118 ± 4 % of reference,14%,,,,,,,,,,,,,,,,,,,Lipophilicity Log D ([2]; listed as [^18F]DCFPyL): -3.4 ± 0.03
O=C(O)CC[C@H](NC(=O)N[C@@H](CCCCNC(=O)[C@H](Cc1ccc2ccccc2c1)NC(=O)c1ccc(CNC(=O)[C@H](CCC(=O)O)NC(=O)[C@H](CCC(=O)O)NC(=O)c2ccc(F)nc2)cc1)C(=O)O)C(=O)O [[^18/19F]PSMA-1007],,,,,,,,,,,,,,,,,,,,,IC50 (PSMA [4]): 4.2 ± 0.5 nM
O=C(O)CC[C@H](NC(=O)N[C@@H](CCCCNC(=O)[C@H](Cc1ccc2ccccc2c1)NC(=O)c1ccc(CNC(=O)[C@H](CCC(=O)O)NC(=O)[C@H](CCC(=O)O)NC(=O)c2ccc([18F])nc2)cc1)C(=O)O)C(=O)O [[^18/19F]PSMA-1007],118 ± 5 % of reference,98%,,,,,,,,,,,,,,,,,,,Lipophilicity Log D ([2]; listed as [^18F]PSMA-1007): -1.6 ± 0.02; HSA-binding (human serum albumin [3]; listed as [^19F]PSMA-1007): > 96%
"CC(C)(C)[Si]([18F])(c1ccc(C(=O)NC[C@@H](NC(=O)CC[C@H](C(=O)O)N2CCN(CC(=O)[O-])CCN(CC(=O)[O-])CCN(CC(=O)[O-])CC2)C(=O)N[C@H](CCCCNC(=O)CCC(=O)NCCC[C@@H](NC(=O)CC[C@H](NC(=O)N[C@@H](CCC(=O)O)C(=O)O)C(=O)O)C(=O)O)C(=O)O)cc1)C(C)(C)C.[Ga+3] [[^18F, ^natGa]rhPSMA-7.1]",,,70 ± 5 % of reference,98%,2.0 ± 0.25 % ID/g,0.53 ± 0.13 % ID/g,0.50 ± 0.31 % ID/g,0.53 ± 0.03 % ID/g,0.30 ± 0.16 % ID/g,220 ± 24.8 % ID/g,0.75 ± 0.62 % ID/g,1.1 ± 0.21 % ID/g,0.32 ± 0.30 % ID/g,0.45 ± 0.12 % ID/g,20.0 ± 4.2 % ID/g,0.28 ± 0.17 % ID/g,14.1 ± 4.1 % ID/g,0.003 ± 0.004 % ID/g,0.86 ± 0.40 % ID/g,0.33 ± 0.24 % ID/g,Affinity fold higher than that of [19F]DCFPyL (PSMA [5]): 1.8 fold; Biodistribution Heart [9]: 0.37 ± 0.16 % ID/g; Biodistribution Intestine [9]: 0.66 ± 0.32 % ID/g; Biodistribution Kidneys [9]: 10.9 ± 2.5 % ID/g; Biodistribution Liver [9]: 0.43 ± 0.07 % ID/g; Biodistribution Lung [9]: 0.85 ± 0.29 % ID/g; Biodistribution Muscle [9]: 0.17 ± 0.15 % ID/g; Biodistribution Pancreas [9]: 0.16 ± 0.10 % ID/g; Biodistribution Spleen [9]: 0.21 ± 0.08 % ID/g; Biodistribution Stomach [9]: 0.97 ± 0.81 % ID/g; Biodistribution Tumor [9]: 0.94 ± 0.22 % ID/g; Abundance (enrichment) of the isomer in tissue compared to time point of injection (LNCaP tumor-bearing mice): higher
"CC(C)(C)[Si]([18F])(c1ccc(C(=O)NC[C@H](NC(=O)CC[C@@H](C(=O)O)N2CCN(CC(=O)[O-])CCN(CC(=O)[O-])CCN(CC(=O)[O-])CC2)C(=O)N[C@H](CCCCNC(=O)CCC(=O)NCCC[C@@H](NC(=O)CC[C@H](NC(=O)N[C@@H](CCC(=O)O)C(=O)O)C(=O)O)C(=O)O)C(=O)O)cc1)C(C)(C)C.[Ga+3] [[^18F, ^natGa]rhPSMA-7.4]",,,207 ± 4 % of reference,97%,3.57 ± 2.38 % ID/g,1.15 ± 0.30 % ID/g,0.62 ± 0.30 % ID/g,0.71 ± 0.26 % ID/g,0.37 ± 0.09 % ID/g,153 ± 80.3 % ID/g,0.69 ± 0.20 % ID/g,1.59 ± 0.61 % ID/g,0.31 ± 0.08 % ID/g,0.50 ± 0.30 % ID/g,18.4 ± 9.77 % ID/g,0.25 ± 0.06 % ID/g,18.9 ± 3.27 % ID/g,0.03 ± 0.04 % ID/g,0.82 ± 0.17 % ID/g,1.0 ± 0.8 % ID/g,"Biodistribution Heart [9]: 0.37 ± 0.05 % ID/g; Biodistribution Intestine [9]: 0.36 ± 0.08 % ID/g; Biodistribution Kidneys [9]: 7.2 ± 2.4 % ID/g; Biodistribution Liver [9]: 0.48 ± 0.14 % ID/g; Biodistribution Lung [9]: 0.74 ± 0.14 % ID/g; Biodistribution Muscle [9]: 0.20 ± 0.05 % ID/g; Biodistribution Pancreas [9]: 0.18 ± 0.09 % ID/g; Biodistribution Spleen [9]: 0.28 ± 0.15 % ID/g; Biodistribution Stomach [9]: 0.20 ± 0.07 % ID/g; Biodistribution Tumor [9]: 0.99 ± 0.19 % ID/g; Abundance (enrichment) of the isomer in tissue compared to time point of injection (LNCaP tumor-bearing mice): lowest enrichment in blood, liver and kidney, but also the lowest uptake by tumors"
